pIC50: −log10 of the molar value. Where “and” joins values, the source holds several entries; their conditions need not be identical. Equal entries are not always repeated.
What was measured:
[1] = molecular target: PDK1 (Homo sapiens, UniProt O15530); test: Kinase selectivity profiling; assay type: biochemical; details: read-out: Percentage inhibition of PDK1
Experimental: (§1) The selectivity of compounds against a panel of 50 human protein kinases was assessed using a non-radiometric assay.

[2] = molecular target: IRAK4 (Homo sapiens, UniProt Q9NWZ3); test: Kinase selectivity profiling, Interleukin 1 receptor-associated kinase 4; assay type: biochemical; details: read-out: Percentage inhibition of IRAK4
Experimental: as §1

[3] = molecular target: CaMK4 (Homo sapiens, UniProt Q16566); test: Kinase selectivity profiling, Calcium/calmodulin-dependent protein kinase IV; assay type: biochemical; details: read-out: Percentage inhibition of CaMK4
Experimental: as §1

[4] = molecular target: SRC (Homo sapiens, UniProt P12931); test: Kinase selectivity profiling, v-Src sarcoma viral oncogene homolog; assay type: biochemical; details: read-out: Percentage inhibition of SRC
Experimental: as §1

[5] = molecular target: PYK2 (Homo sapiens, UniProt Q14289); test: Kinase selectivity profiling, Proline-rich tyrosine kinase 2; assay type: biochemical; details: read-out: Percentage inhibition of PYK2
Experimental: as §1

[6] = molecular target: MET (Homo sapiens, UniProt P08581); test: Kinase selectivity profiling, Hepatocyte growth factor receptor; assay type: biochemical; details: read-out: Percentage inhibition of MET
Experimental: as §1

[7] = molecular target: CDK2/CycA2 (Homo sapiens, UniProt P24941); test: Kinase selectivity profiling, Cyclin-dependent kinase 2/cyclin A2; assay type: biochemical; details: 0.1 µM inhibitor, ATP at Km
Experimental: as §1

[8] = molecular target: p38α (Homo sapiens, UniProt Q16539); test: Kinase selectivity profiling, Mitogen-activated protein kinase 14; assay type: biochemical; details: read-out: Percentage inhibition of p38α
Experimental: as §1

[9] = molecular target: TIE2 (Homo sapiens, UniProt Q02763); test: Kinase selectivity profiling, TEK tyrosine kinase; assay type: biochemical; details: read-out: Percentage inhibition of TIE2
Experimental: as §1

[10] = molecular target: EPHA4 (Homo sapiens, UniProt P54764); test: Kinase selectivity profiling, EPH receptor A4; assay type: biochemical; details: read-out: Percentage inhibition of EPHA4
Experimental: as §1

[11] = molecular target: SYK (Homo sapiens, UniProt P43405); test: Kinase selectivity profiling, Spleen tyrosine kinase; assay type: biochemical; details: read-out: Percentage inhibition of SYK
Experimental: as §1

[12] = molecular target: LCK (Homo sapiens, UniProt P06239); test: Kinase selectivity profiling, Lymphocyte-specific protein tyrosine kinase; assay type: biochemical; details: read-out: Percentage inhibition of LCK
Experimental: as §1

[13] = tested on: HCT116 cells; test: Immunoblotting of CSC, mesenchymal and embryonal stem cell markers in HCT116 cells; assay type: cell-based, human; details: HCT116, 3 μM, 48 or 72 h
Experimental: Protein samples were fractionated by SDS–PAGE and blotted onto Immobilon-P membranes (Millipore) as described previously. After incubation with the primary antibodies (listed in Supplementary Table 4) at 4 °C overnight, the blots were detected with the relevant horseradish peroxidase-conjugated anti-mouse or anti-rabbit IgG antibody (Cell Signaling Technology) and Western lighting ECL Pro (PerkinElmer). Signals were visualized with the LAS-4010 system (GE Healthcare). Uncropped versions of the blots in Figs 2e and 3f are shown in Supplementary Fig. 15.

[14] = tested on: patient-derived colorectal cancer spheroids #19; test: ATP production of patient-derived spheroid #19; assay type: cell-based; details: Homo sapiens, 72 h; spheroid #19, 3 days
Experimental: Cells were seeded at a density of 3,000 cells per well in 96-well plates. Twenty-four hours after seeding, the cells were exposed to serially diluted compounds (0.003, 0.01, 0.03, 0.1, 0.3, 1, 3 and 10 μM) and incubated for 72 h (Fig. 3a). Patient-derived colorectal cancer spheroids were dissociated into single cells with Accutase (Nacalai Tesque) and seeded at a density of 3,000 cells per well into Ultra-Low attachment multiwall 96-well plates (Corning; Fig. 6d). ATP was measured with a CellTiter-Glo Luminescent Cell Viability Assay kit (Promega). Experiments were performed in triplicate and repeated at least two times.

[15] = molecular target: PAK2 (Homo sapiens, UniProt Q13177); test: Kinase selectivity profiling, P21 protein (Cdc42/Rac)-activated kinase 2; assay type: biochemical; details: read-out: Percentage inhibition of PAK2
Experimental: as §1

[16] = molecular target: FGFR1 (Homo sapiens, UniProt P11362); test: Kinase selectivity profiling, Fibroblast growth factor receptor 1; assay type: biochemical; details: read-out: Percentage inhibition of FGFR1
Experimental: as §1

[17] = molecular target: DAPK1 (Homo sapiens, UniProt P53355); test: Kinase selectivity profiling, Death-associated protein kinase 1; assay type: biochemical; details: read-out: Percentage inhibition of DAPK1
Experimental: as §1

[18] = molecular target: AurA (Homo sapiens, UniProt O14965); test: Kinase selectivity profiling, Aurora kinase A; assay type: biochemical; details: read-out: Percentage inhibition of AurA
Experimental: as §1

[19] = molecular target: TSSK1 (Homo sapiens, UniProt Q9BXA7); test: Kinase selectivity profiling, Testis-specific serine kinase 1; assay type: biochemical; details: read-out: Percentage inhibition of TSSK1
Experimental: as §1

[20] = molecular target: AKT1 (Homo sapiens, UniProt P31749); test: Kinase selectivity profiling, v-Akt murine thymoma viral oncogene homolog 1; assay type: biochemical; details: read-out: Percentage inhibition of AKT1
Experimental: as §1

[21] = tested on: HCT116 cells; test: Soft-agar colony-formation assay; assay type: cell-based; details: Homo sapiens, HCT-116, 336 h; HCT116, 14 days
Experimental: One milliliter of 0.33% agar (Lonza) in culture medium containing 1.5 × 10^4 cells was plated onto 1 ml of solidified base agar (0.5%) in each well of six-well clusters. The top agar layer was covered with culture medium containing serially diluted compounds. The medium was replaced every three days. Cell number was determined colorimetrically at 450–650 nm using the Cell Count Reagent SF (Nacalai Tesque). IC50 values were obtained by fitting a four-parameter dose–response curve to normalized data using GraphPad Prism version 5 (GraphPad software; Fig. 3b). Experiments were performed in triplicate and repeated at least two times.

[22] = molecular target: PIM1 (Homo sapiens, UniProt P11309); test: Kinase selectivity profiling, Pim-1 oncogene; assay type: biochemical; details: read-out: Percentage inhibition of PIM1
Experimental: as §1

[23] = tested on: HCT116 cells; test: In vivo tumorigenicity of pretreated HCT116 cells in NOD/ShiJic-scid mice; design: species or system mouse; details: HCT116, short-term in vitro treatment
Experimental: After washing off the compounds, 10,000, 1,000, 100 or 10 viable cells in culture medium containing 50% Matrigel (BD Biosciences) were injected subcutaneously into the flanks of NOD/ShiJic-scid Jcl (6-week-old male) mice. The number of mice that developed tumours was counted, and the frequency of cells with tumour-forming capability was calculated using the ELDA software.

[24] = molecular target: DYRK1B (Homo sapiens, UniProt Q9Y463); test: Kinase selectivity profiling, Dual-specificity tyrosine-phosphorylation regulated kinase 1B; assay type: biochemical; details: read-out: Percentage inhibition of DYRK1B
Experimental: as §1

[25] = molecular target: ROCK1 (Homo sapiens, UniProt Q13464); test: Kinase selectivity profiling, Rho-associated, coiled-coil containing protein kinase 1; assay type: biochemical; details: read-out: Percentage inhibition of ROCK1
Experimental: as §1

[26] = molecular target: ITK (Homo sapiens, UniProt Q08881); test: Kinase selectivity profiling, IL2-inducible T-cell kinase; assay type: biochemical; details: read-out: Percentage inhibition of ITK
Experimental: as §1

Sequence of AKT1 (P31749 whole entry): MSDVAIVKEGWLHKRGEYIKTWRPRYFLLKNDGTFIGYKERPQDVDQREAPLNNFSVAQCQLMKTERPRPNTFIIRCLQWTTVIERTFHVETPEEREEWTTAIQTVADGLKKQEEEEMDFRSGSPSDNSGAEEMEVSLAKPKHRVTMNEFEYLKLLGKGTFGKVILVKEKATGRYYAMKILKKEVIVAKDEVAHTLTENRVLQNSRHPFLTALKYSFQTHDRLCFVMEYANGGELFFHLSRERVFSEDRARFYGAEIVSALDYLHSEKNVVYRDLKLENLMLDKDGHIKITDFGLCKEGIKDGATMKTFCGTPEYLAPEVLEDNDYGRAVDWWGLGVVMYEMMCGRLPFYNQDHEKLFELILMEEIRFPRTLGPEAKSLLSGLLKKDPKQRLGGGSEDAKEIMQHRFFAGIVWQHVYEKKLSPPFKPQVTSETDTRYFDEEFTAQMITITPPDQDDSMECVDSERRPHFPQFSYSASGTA
Sequence of DAPK1 (P53355 whole entry): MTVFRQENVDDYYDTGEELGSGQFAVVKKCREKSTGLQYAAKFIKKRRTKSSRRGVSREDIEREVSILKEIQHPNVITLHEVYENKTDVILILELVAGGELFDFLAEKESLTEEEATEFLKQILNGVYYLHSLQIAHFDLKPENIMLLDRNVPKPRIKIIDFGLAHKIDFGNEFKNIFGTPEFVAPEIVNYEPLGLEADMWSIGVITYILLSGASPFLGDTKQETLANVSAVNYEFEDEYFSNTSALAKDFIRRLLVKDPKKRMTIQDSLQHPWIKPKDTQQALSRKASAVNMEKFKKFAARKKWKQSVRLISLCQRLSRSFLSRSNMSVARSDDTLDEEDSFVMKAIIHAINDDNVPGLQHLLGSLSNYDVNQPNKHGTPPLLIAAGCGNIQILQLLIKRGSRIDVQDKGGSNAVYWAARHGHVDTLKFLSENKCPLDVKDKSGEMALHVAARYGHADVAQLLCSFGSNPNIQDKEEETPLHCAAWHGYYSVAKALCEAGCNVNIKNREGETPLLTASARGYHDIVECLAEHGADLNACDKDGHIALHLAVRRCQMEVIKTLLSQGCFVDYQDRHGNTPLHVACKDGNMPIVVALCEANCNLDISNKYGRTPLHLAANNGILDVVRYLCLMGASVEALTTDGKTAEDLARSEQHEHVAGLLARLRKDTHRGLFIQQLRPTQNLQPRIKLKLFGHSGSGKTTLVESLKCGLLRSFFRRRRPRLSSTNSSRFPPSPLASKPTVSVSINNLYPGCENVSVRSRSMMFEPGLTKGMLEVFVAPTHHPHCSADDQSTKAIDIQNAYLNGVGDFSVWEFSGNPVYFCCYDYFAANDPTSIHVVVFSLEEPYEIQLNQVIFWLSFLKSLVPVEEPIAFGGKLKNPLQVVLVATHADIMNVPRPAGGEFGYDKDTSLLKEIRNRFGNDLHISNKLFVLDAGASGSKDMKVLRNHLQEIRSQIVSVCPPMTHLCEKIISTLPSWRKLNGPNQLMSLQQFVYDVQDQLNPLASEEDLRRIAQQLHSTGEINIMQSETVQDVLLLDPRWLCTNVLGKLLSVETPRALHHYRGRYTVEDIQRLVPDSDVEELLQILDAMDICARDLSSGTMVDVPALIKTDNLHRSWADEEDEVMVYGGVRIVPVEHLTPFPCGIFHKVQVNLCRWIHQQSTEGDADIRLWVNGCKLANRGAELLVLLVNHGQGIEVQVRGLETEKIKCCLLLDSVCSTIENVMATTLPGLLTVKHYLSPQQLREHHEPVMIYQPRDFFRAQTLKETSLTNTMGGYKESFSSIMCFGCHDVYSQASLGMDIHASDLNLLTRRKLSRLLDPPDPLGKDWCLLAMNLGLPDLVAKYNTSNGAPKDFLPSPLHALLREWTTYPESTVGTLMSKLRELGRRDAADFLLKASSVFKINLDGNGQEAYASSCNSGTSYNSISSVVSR
Sequence of TSSK1 (Q9BXA7 whole entry): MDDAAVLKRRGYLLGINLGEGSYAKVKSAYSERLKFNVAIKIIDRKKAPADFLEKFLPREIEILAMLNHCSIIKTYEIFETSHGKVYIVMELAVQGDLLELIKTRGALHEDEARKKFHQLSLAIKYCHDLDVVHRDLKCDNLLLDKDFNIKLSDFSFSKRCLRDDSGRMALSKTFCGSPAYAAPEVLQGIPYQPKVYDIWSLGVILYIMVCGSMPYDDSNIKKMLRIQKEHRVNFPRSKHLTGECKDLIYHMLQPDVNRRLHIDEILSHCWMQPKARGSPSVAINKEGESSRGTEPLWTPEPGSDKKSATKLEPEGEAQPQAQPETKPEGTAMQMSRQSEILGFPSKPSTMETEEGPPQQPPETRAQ
Sequence of IRAK4 (Q9NWZ3 whole entry): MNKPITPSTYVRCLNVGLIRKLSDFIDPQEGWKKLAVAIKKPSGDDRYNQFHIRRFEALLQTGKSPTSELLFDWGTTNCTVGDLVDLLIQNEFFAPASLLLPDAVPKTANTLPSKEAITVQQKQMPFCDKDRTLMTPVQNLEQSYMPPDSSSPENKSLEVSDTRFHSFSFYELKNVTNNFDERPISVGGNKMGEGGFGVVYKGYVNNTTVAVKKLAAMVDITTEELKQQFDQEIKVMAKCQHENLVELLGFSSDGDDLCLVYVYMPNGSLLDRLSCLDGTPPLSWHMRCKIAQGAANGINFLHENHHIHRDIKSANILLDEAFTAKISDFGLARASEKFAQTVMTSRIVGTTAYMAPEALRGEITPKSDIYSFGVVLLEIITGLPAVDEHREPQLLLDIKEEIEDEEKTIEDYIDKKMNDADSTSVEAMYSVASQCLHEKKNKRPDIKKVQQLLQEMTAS
Sequence of ROCK1 (Q13464 whole entry): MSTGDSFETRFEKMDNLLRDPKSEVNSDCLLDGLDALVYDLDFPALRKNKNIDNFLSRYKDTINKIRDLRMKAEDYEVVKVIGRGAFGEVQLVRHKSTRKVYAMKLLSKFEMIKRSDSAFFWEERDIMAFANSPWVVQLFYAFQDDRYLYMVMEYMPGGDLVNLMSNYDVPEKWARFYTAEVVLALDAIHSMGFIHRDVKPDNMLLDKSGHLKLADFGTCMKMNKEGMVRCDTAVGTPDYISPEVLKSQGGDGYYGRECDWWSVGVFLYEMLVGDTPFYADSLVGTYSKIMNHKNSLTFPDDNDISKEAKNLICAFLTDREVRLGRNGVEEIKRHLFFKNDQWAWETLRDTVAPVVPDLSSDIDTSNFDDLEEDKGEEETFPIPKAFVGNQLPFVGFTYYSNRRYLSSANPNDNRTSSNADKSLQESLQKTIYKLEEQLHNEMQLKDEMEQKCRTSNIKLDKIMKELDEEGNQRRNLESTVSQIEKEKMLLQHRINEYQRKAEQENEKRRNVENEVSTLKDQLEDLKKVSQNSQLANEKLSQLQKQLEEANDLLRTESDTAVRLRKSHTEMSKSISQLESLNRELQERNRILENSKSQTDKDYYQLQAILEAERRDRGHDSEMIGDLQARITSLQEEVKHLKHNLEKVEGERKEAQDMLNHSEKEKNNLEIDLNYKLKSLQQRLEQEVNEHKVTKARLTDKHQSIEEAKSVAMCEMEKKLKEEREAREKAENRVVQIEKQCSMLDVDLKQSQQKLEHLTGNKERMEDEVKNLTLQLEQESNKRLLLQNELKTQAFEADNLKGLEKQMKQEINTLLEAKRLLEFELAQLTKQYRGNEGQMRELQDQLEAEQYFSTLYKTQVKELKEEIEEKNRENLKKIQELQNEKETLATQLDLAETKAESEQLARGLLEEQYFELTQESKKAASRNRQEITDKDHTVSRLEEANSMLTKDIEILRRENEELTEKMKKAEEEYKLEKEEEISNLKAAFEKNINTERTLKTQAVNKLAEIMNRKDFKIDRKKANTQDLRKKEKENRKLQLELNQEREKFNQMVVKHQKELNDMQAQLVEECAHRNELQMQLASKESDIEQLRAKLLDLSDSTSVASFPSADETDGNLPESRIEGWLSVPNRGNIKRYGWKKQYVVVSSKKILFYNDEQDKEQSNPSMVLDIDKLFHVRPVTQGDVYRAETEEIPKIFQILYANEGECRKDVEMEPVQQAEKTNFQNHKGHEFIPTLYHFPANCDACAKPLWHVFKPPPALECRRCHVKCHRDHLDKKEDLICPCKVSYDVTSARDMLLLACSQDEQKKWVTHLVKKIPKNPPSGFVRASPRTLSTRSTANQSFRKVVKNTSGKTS
Sequence of AurA (O14965 whole entry): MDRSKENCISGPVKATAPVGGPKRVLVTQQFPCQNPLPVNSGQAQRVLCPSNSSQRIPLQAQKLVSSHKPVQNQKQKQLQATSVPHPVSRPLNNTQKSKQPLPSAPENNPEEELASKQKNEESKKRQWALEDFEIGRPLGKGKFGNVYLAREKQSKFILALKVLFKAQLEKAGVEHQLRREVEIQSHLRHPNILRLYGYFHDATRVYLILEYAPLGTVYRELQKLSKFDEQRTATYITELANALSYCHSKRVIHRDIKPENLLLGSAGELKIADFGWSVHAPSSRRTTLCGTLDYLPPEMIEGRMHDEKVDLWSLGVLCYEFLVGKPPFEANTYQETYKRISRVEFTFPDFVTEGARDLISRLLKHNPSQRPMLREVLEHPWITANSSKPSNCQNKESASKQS
Sequence of CaMK4 (Q16566 whole entry): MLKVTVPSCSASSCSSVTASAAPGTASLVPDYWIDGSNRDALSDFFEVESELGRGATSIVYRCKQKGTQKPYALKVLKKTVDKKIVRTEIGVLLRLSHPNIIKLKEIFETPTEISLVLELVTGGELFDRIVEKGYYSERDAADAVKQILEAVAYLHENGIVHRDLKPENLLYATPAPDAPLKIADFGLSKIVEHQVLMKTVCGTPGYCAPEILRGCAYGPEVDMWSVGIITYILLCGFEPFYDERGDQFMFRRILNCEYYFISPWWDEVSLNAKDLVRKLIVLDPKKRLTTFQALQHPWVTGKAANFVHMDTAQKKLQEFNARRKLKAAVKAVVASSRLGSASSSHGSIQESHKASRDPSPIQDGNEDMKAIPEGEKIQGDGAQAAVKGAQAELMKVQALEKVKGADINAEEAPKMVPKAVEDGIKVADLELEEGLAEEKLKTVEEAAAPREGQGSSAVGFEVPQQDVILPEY

SMILES	inhibition at 0.1 µM [1]	inhibition at 0.1 µM [2]	inhibition at 0.1 µM [3]	inhibition at 0.1 µM [4]	inhibition at 0.1 µM [5]	inhibition at 0.1 µM [6]	inhibition at 0.1 µM [8]	inhibition at 0.1 µM [9]	inhibition at 0.1 µM [10]	inhibition at 0.1 µM [11]	inhibition at 0.1 µM [12]	downregulation of expression of putative colorectal CSC markers CD44, CD133, ALDH1 [13]	pIC50 [14]	inhibition at 0.1 µM [15]	inhibition at 0.1 µM [16]	inhibition at 0.1 µM [17]	inhibition at 0.1 µM [18]	inhibition at 0.1 µM [19]	inhibition at 0.1 µM [20]	pIC50 [21]	further results
O[C@H]1CC[C@@H](Oc2cccc3cnc(Nc4ccc5nc[nH]c5c4)nc23)CC1 [NCB-0846, cis-4-(2-(3H-benzo[d]imidazol-5-ylamino)quinazolin-8-yloxy)cyclohexanol]	2.4%	14.7%	-1.5%	19%	73%	42.1%	-3.5%	4.9%	5.5%	7.6%	23.6%	downregulated	6.21	-7.8%	32.5%	3.7%	41.4%	5.8%	-3.4%	6.72	Percentage inhibition of CDK2/CycA2 ([7]; 0.1 µM): > 80% and 101.1%; embryonal stem cell markers (Oct4, Nanog and Sox2) [13]: not affected; expression of mesenchymal markers (Slug, Snail, Twist, Smad2 and Vimentin) [13]: reduced; inhibition at 0.1 µM [22]: -3.1%; tumour formation [23]: significantly reduced; inhibition at 0.1 µM [24]: 8.9%; inhibition at 0.1 µM [25]: 20.1%; inhibition at 0.1 µM [26]: 10%
O[C@H]1CC[C@H](Oc2cccc3cnc(Nc4ccc5nc[nH]c5c4)nc23)CC1 [NCB-0970]	-0.8%	6.3%	-4.1%	14.4%	23.6%	16.1%	-2.8%	-2.8%	2.3%	14.2%	6.8%	not	< 5.52	-17.4%	14.4%	4.7%	36.5%	1.1%	-4.4%	5.41	inhibition at 0.1 µM ([7]; read-out: Percentage inhibition of CDK2/CycA2): 93%; inhibition at 0.1 µM [22]: -5%; tumour formation [23]: not; inhibition at 0.1 µM [24]: -2.4%; inhibition at 0.1 µM [25]: 9.7%; inhibition at 0.1 µM [26]: 9%
